From US10100056B2, “SHIP1 modulators and methods related thereto” (Aquinox Pharmaceuticals (Canada) Inc., priority 2013, dated 2018)

Test system: Akt phosphorylation in Molt-4 (PTEN-/SHIP1+) cells
Experiment: Akt phosphorylation in lymphocytes (Western blot, IGF-1 stimulated)
Assay type: cell-based
Set-up: key: +: inhibits Akt phosphorylation at 30 μM; −: no effect on Akt phosphorylation at 30 μM
Conditions: 30 μM; Molt-4 (SHIP1+) cells, IGF-1 100 ng/mL
Procedure: Molt-4 (PTEN-/SHIP1+) cells are starved in serum free RPMI for overnight. In a 15 mL conical tube, 2-3 million serum starved cells (1 million cells per mL) are treated with various concentrations of test compound ([…]) for 30 min at 37° C. followed by stimulation with 100 ng/mL of IGF-1 for 1 hour at 37° C. After stimulation, cells are washed once with ice-cold DPBS and lysed with Lysis Buffer (20 mM Tris-HCl, pH 7.5, 140 mM NaCl, 1% NP-40, Complete Mini Protease Inhibitor Cocktail, 10 mM NaF, 1 mM Na3VO4, 1 mM β-glycerolphosphate) on ice for 30 min with vortexing every 10 min. Samples are then centrifuged at 13,000 rpm for 20 min, and supernatants are collected as total cell lysate samples. Protein concentration is determined using bicinchonic acid assay, and about 15 μg of total protein from each sample is loaded and separated on a 4-12% Tris-Glycine gel. After SDS-PAGE, proteins are transferred from the gel to a nitrocellulose membrane. The membrane is blocked in 5% BSA in PBS containing 0.1% Tween-20 (PBS-T) for 1 hour at room temperature before probing with primary antibodies for overnight at 4° C. The following antibodies are used: mouse anti-SHIP1 (1:500 dilution; Santa Cruz, Calif., USA), rabbit anti-phospho-Akt (Ser473) (1:1000 dilution; Cell Signaling Technologies, MA, USA), rabbit anti-Akt (1:1000; Cell Signaling Technologies, MA, USA), and rabbit anti-actin (1:2000; Cell Signaling Technologies, MA, USA). The membrane is then incubated with goat anti-rabbit or anti-mouse secondary antibodies (1:3000) for 1 hour at room temperature. Target proteins on the membrane are detected with ECL solution and exposed on a film.

| Compound | Molt-4 (SHIP+): inhibition of Akt phosphorylation |
| --- | --- |
| C=C1CC[C@H]2[C@H](CC#N)[C@@H]([C@@]3(C)CC[C@H](O)C[C@@H]3CO)CC[C@]12C [Cpd. No. 87, 2-((3aS,4R,5S,7aS)-5-((1R,2S,4S)-4-hydroxy-2-(hydroxymethyl)-1-methylcyclohexyl)-7a-methyl-1-methyleneoctahydro-1H-inden-4-yl)acetonitrile] | + |
| C=C1CC[C@H]2[C@H](CNC(=O)CCC)[C@@H]([C@@]3(C)CC[C@H](O)C[C@@H]3CO)CC[C@]12C [Cpd. No. 23, N-(((3aS,4R,5S,7aS)-5-((1R,2S,4S)-4-hydroxy-2-(hydroxymethyl)-1-methylcyclohexyl)-7a-methyl-1-methyleneoctahydro-1H-inden-4-yl)methyl)butyramide] | + |
| C=C1CC[C@H]2[C@H](O)[C@@H]([C@@]3(C)CC[C@H](O)C[C@H]3CCC(=O)O)CC[C@]12C [Cpd. No. 97, 3-((1R,2S,5S)-5-hydroxy-2-((3aR,4R,5R,7aS)-4-hydroxy-7a-methyl-1-methyleneoctahydro-1H-inden-5-yl)-2-methylcyclohexyl)propanoic acid] | + |
| C=C1CC[C@H]2[C@H](CNC(=O)C(C)(C)C)[C@@H]([C@@]3(C)CC[C@H](O)C[C@@H]3CO)CC[C@]12C [Cpd. No. 20, N-(((3aS,4R,5S,7aS)-5-((1R,2S,4S)-4-hydroxy-2-(hydroxymethyl)-1-methylcyclohexyl)-7a-methyl-1-methyleneoctahydro-1H-inden-4-yl)methyl)pivalamide] | + |
| C=C1CC[C@H]2[C@H](CNCc3cc(OC)cc(OC)c3)[C@@H]([C@@]3(C)CC[C@H](O)C[C@@H]3CO)CC[C@]12C [Cpd. No. 32, (1S,3S,4R)-4-((3aS,4R,5S,7aS)-4-((3,5-dimethoxybenzylamino)methyl)-7a-methyl-1-methyleneoctahydro-1H-inden-5-yl)-3-(hydroxymethyl)-4-methylcyclohexanol] | + |
| C=C1CC[C@H]2[C@H](CNC(=O)C(F)(F)F)[C@@H]([C@@]3(C)CC[C@H](O)C[C@@H]3CO)CC[C@]12C [Cpd. No. 86, 2,2,2-trifluoro-N-(((3aS,4R,5S,7aS)-5-((1R,2S,4S)-4-hydroxy-2-(hydroxymethyl)-1-methylcyclohexyl)-7a-methyl-1-methyleneoctahydro-1H-inden-4-yl)methyl)acetamide] | + |
| C=C1CC[C@H]2[C@H](CNC(=O)C3CCCCC3)[C@@H]([C@@]3(C)CC[C@H](O)C[C@@H]3CO)CC[C@]12C [Cpd. No. 83, N-(((3aS,4R,5S,7aS)-5-((1R,2S,4S)-4-hydroxy-2-(hydroxymethyl)-1-methylcyclohexyl)-7a-methyl-1-methyleneoctahydro-1H-inden-4-yl)methyl)cyclohexanecarboxamide] | + |
| C=C1CC[C@H]2[C@H](CNC(=O)C(C)C)[C@@H]([C@@]3(C)CC[C@H](O)C[C@@H]3CO)CC[C@]12C [Cpd. No. 21, N-(((3aS,4R,5S,7aS)-5-((1R,2S,4S)-4-hydroxy-2-(hydroxymethyl)-1-methylcyclohexyl)-7a-methyl-1-methyleneoctahydro-1H-inden-4-yl)methyl)isobutyramide] | + |
| C=C1CC[C@H]2[C@H](O)[C@@H]([C@@]3(C)CC[C@H](O)C[C@@H]3CCC(N)=O)CC[C@]12C [Cpd. No. 95, 3-((1S,2S,5S)-5-hydroxy-2-((3aR,4R,5R,7aS)-4-hydroxy-7a-methyl-1-methyleneoctahydro-1H-inden-5-yl)-2-methylcyclohexyl)propanamide] | + |
| C=C1CC[C@H]2[C@H](O)[C@@H]([C@@]3(C)CC[C@H](O)C[C@@H]3CCN3CCCC3)CC[C@]12C [Cpd. No. 11, (3aR,4R,5R,7aS)-5-((1S,2S,4S)-4-hydroxy-1-methyl-2-(2-(pyrrolidin-1-yl)ethyl)cyclohexyl)-7a-methyl-1-methyleneoctahydro-1H-inden-4-ol] | + |
| C=C1CC[C@H]2[C@H](CNC(=S)NC)[C@@H]([C@@]3(C)CC[C@H](O)C[C@@H]3CO)CC[C@]12C [Cpd. No. 85, 1-(((3aS,4R,5S,7aS)-5-((1R,2S,4S)-4-hydroxy-2-(hydroxymethyl)-1-methylcyclohexyl)-7a-methyl-1-methyleneoctahydro-1H-inden-4-yl)methyl)-3-methylthiourea] | + |
| C=C1CC[C@H]2[C@H](CC(N)=O)[C@@H]([C@@]3(C)CC[C@H](O)C[C@@H]3CO)CC[C@]12C [Cpd. No. 90, 2-((3aS,4R,5S,7aS)-5-((1R,2S,4S)-4-hydroxy-2-(hydroxymethyl)-1-methylcyclohexyl)-7a-methyl-1-methyleneoctahydro-1H-inden-4-yl)acetamide] | + |
| C=C1CC[C@H]2[C@H](O)[C@@H]([C@@]3(C)CC[C@H](O)C[C@@H]3CCn3ccnc3)CC[C@]12C [Cpd. No. 50, (3aR,4R,5R,7aS)-5-((1S,2S,4S)-2-(2-(1H-imidazol-1-yl)ethyl)-4-hydroxy-1-methylcyclohexyl)-7a-methyl-1-methyleneoctahydro-1H-inden-4-ol] | + |
| C=C1CC[C@H]2[C@H](CNC(=O)c3ccco3)[C@@H]([C@@]3(C)CC[C@H](O)C[C@@H]3CO)CC[C@]12C [Cpd. No. 81, N-(((3aS,4R,5S,7aS)-5-((1R,2S,4S)-4-hydroxy-2-(hydroxymethyl)-1-methylcyclohexyl)-7a-methyl-1-methyleneoctahydro-1H-inden-4-yl)methyl)furan-2-carboxamide] | + |
| CN(C)C[C@H]1C2=C(CC[C@@H]1[C@@]1(C)CC[C@H](O)C[C@@H]1CO)C(C)(C)CC2 [Cpd. No. 3, (1S,3S,4R)-4-((4R,5S)-4-((dimethylamino)methyl)-1,1-dimethyl-2,3,4,5,6,7-hexahydro-1H-inden-5-yl)-3-(hydroxymethyl)-4-methylcyclohexanol] | + |
| C=C1CC[C@H]2[C@H](O)[C@@H]([C@@]3(C)CC[C@H](O)C[C@@H]3CCC#N)CC[C@]12C [Cpd. No. 94, 3-((1S,2S,5S)-5-hydroxy-2-((3aR,4R,5R,7aS)-4-hydroxy-7a-methyl-1-methyleneoctahydro-1H-inden-5-yl)-2-methylcyclohexyl)propanenitrile] | + |
| C=C1CC[C@H]2[C@H](CNC(=O)C3CC3)[C@@H]([C@@]3(C)CC[C@H](O)C[C@@H]3CO)CC[C@]12C [Cpd. No. 82, N-(((3aS,4R,5S,7aS)-5-((1R,2S,4S)-4-hydroxy-2-(hydroxymethyl)-1-methylcyclohexyl)-7a-methyl-1-methyleneoctahydro-1H-inden-4-yl)methyl)cyclopropanecarboxamide] | + |
| C=C1CC[C@H]2[C@H](CNCc3ccc4c(c3)OCO4)[C@@H]([C@@]3(C)CC[C@H](O)C[C@@H]3CO)CC[C@]12C [Cpd. No. 34, (1S,3S,4R)-4-((3aS,4R,5S,7aS)-4-((benzo[d][1,3]dioxol-5-ylmethylamino)methyl)-7a-methyl-1-methyleneoctahydro-1H-inden-5-yl)-3-(hydroxymethyl)-4-methylcyclohexanol] | + |
